Results published in ChEMBL document CHEMBL5465560, “Selectivity Literature for EUbOPEN Chemogenomic Library” (2024).

Experiments:
[1] = tested on: Epidermal growth factor receptor (Homo sapiens), P00533 [UNDEFINED MUTATION]; test: Selectivity interaction (KinomeScan (DiscoverX)) EUB0000666a EGFR; conditions: at 10 µM
[2] = target: T1, Serine/threonine-protein kinase LATS1 (Homo sapiens) (UniProt O95835); test: Selectivity interaction (Kinase panel (KiNativ target engagement assay in Jurkat cells)) EUB0001635a LATS1; assay type: cell-based; conditions: at 1 µM
T1 sequence (whole entry): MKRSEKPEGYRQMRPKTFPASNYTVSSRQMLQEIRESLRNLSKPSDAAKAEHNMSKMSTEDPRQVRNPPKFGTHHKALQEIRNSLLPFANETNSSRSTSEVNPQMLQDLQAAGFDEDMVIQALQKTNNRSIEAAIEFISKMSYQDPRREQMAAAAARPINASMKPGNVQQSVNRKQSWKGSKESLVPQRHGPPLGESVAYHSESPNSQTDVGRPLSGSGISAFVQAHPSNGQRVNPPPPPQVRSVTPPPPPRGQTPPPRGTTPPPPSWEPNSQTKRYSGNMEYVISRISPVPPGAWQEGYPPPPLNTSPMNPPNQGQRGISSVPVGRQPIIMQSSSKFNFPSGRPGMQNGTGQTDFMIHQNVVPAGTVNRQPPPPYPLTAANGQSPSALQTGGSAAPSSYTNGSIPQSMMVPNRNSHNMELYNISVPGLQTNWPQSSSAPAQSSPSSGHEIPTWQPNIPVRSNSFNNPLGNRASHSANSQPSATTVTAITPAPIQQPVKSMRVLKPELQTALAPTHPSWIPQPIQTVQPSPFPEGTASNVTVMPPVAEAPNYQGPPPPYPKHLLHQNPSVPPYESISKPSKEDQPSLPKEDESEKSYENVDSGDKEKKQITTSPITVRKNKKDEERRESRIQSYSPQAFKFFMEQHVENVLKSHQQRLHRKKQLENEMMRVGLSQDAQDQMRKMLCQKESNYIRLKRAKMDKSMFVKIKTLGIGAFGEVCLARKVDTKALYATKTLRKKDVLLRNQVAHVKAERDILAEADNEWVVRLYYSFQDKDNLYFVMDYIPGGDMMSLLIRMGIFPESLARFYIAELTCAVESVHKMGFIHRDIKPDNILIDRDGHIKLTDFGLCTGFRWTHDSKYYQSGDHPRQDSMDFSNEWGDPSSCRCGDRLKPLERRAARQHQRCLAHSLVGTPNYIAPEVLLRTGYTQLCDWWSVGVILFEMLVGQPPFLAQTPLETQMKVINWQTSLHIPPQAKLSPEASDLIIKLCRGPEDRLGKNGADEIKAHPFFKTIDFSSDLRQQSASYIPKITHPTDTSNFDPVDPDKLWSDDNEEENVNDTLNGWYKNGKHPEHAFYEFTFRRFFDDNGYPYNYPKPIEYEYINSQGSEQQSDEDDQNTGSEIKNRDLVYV

[3] = target: Ribosomal protein S6 kinase alpha-3 (Homo sapiens, UniProt P51812); test: Selectivity interaction (ActivX KiNativ screen (kinase selectivity in THP-1 cell lysates)) EUB0000639a RPS6KA3; assay type: subcellular; conditions: lysate, at 0.2 µM
[4] = target: T2, Serine/threonine-protein kinase Nek2 (Homo sapiens) (UniProt P51955); conditions: at 10 µM
T2 sequence (whole entry): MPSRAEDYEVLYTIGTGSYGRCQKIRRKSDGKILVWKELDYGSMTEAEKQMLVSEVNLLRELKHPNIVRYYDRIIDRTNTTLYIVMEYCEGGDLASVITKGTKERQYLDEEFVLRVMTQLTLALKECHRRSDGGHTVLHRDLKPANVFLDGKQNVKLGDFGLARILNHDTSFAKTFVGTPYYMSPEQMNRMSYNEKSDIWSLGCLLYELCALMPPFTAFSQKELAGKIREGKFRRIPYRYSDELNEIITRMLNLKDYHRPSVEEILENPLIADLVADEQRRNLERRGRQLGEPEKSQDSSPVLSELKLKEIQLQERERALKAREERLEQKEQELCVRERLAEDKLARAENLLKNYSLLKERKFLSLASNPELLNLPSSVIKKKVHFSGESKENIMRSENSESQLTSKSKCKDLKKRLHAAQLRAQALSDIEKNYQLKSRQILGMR

[5] = tested on: T3, Receptor-type tyrosine-protein kinase FLT3 (Homo sapiens), P36888 [D835Y]; test: (§1) Selectivity interaction (KinomeScan (DiscoverX)) EUB0000618a FLT3; conditions: at 10 µM
T3 sequence (whole entry): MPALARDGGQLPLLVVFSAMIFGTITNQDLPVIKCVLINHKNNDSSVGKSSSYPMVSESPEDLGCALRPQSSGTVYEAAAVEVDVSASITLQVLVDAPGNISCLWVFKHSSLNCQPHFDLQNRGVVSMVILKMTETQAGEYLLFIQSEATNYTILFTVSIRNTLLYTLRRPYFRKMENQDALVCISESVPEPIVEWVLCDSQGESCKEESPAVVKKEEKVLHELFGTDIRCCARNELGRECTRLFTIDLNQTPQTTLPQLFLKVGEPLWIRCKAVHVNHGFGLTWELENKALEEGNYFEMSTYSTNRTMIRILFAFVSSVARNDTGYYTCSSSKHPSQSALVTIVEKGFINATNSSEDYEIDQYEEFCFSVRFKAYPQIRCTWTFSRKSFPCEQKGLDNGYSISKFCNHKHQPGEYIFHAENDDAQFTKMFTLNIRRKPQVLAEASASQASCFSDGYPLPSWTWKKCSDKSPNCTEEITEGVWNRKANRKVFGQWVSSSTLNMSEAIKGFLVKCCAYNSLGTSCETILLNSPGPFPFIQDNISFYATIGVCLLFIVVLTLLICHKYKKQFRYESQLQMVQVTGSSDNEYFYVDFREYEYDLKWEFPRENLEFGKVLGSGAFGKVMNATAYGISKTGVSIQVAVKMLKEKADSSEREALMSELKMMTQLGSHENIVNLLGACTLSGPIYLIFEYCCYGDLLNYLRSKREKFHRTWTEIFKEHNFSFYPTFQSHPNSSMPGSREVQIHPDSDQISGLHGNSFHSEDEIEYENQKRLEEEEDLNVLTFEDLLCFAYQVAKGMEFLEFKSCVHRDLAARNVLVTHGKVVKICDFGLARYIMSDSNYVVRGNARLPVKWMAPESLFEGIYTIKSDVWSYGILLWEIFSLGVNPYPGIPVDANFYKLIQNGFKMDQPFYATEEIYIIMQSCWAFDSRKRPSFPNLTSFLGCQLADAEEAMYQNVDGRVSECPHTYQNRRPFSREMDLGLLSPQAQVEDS

[6] = tested on: Receptor-type tyrosine-protein kinase FLT3 (Homo sapiens), P36888 [UNDEFINED MUTATION]; test: as §1; conditions: at 10 µM

Chain of Epidermal growth factor receptor (Homo sapiens), P00533 [UNDEFINED MUTATION] (P00533 whole entry, looked up, change not shown): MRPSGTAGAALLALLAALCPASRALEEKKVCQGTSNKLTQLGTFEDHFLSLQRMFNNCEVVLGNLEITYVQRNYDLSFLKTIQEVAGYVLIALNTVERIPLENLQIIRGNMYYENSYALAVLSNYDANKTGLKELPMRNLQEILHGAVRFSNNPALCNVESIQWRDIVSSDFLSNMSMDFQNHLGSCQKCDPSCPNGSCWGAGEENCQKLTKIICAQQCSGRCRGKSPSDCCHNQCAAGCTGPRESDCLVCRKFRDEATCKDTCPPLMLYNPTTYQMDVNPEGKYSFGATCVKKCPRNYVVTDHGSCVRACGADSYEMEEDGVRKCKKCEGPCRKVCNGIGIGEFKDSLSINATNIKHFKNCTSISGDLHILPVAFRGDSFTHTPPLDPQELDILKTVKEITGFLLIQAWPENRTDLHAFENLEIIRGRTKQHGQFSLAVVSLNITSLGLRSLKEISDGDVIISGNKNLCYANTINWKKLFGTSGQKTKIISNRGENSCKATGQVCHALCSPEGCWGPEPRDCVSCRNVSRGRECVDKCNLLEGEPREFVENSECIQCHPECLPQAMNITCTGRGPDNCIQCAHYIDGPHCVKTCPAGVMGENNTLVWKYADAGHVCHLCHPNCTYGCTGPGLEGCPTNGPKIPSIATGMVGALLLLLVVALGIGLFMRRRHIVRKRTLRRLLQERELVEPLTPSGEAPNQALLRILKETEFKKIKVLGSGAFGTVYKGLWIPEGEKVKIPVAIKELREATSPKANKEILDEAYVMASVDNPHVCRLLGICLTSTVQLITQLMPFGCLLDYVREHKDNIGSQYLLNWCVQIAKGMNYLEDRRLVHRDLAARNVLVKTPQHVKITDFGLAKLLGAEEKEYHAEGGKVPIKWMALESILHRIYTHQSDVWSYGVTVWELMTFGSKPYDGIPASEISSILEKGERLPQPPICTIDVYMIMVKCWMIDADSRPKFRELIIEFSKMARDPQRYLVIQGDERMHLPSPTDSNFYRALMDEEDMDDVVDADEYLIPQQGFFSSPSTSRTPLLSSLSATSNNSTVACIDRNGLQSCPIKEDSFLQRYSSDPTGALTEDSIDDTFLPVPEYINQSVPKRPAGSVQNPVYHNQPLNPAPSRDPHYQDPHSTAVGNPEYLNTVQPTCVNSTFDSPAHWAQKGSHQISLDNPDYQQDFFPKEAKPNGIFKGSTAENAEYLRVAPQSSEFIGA
Chain of Ribosomal protein S6 kinase alpha-3 (P51812 whole entry): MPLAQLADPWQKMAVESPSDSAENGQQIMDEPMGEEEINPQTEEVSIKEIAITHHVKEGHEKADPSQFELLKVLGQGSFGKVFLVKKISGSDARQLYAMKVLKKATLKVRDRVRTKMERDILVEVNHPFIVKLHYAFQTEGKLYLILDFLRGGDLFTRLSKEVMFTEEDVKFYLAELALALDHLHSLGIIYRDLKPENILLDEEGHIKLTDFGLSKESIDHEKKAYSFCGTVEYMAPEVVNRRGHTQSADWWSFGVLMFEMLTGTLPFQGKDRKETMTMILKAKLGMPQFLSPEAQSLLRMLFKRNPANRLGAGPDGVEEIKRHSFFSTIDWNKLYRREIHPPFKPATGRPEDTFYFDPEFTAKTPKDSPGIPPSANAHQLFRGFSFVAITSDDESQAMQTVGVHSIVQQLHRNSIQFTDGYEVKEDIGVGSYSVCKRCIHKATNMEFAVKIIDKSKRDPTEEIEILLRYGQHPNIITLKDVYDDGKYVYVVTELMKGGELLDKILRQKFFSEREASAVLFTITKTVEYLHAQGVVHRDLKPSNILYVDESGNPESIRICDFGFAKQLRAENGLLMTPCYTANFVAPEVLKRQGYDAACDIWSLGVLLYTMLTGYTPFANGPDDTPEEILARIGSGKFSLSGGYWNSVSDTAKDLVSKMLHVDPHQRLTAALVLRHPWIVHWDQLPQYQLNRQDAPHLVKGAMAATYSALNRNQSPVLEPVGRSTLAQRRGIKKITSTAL

O=C(NOC[C@H](O)CO)c1ccc(F)c(F)c1Nc1ccc(I)cc1F
% of control [1]: 70%

C=CC(=O)Nc1ccc(C(=O)Nc2[nH]nc3c2CN(C(=O)N[C@H](CN(C)C)c2ccccc2)C3(C)C)cc1
% of engagement [2]: 3.9%

CC[C@@H]1[C@H](F)C(=O)N[C@@H]1COc1nccc2cc(C(N)=O)c(OC)cc12 [ZIMLOVISERTIB]
% of inhibition [3]: -3.7%

COCC(=O)NC/C=C/c1ccc2ncnc(Nc3ccc(Oc4ccc(C)nc4)c(C)c3)c2c1 [CP-724714]
% of control [4]: 100%

O[C@H]1CC[C@H](Nc2ncc3nc(Nc4c(F)cc(F)cc4F)n([C@H]4CCOC4)c3n2)CC1
% of control [5]: 100% | % of control [6]: 90%
